Like-named read-outs stand apart in the source and are kept apart here.
Legend:
[1] = tested on: C. neoformans var. gattii; experiment: microbe, parasite or virus in culture
Description: (§1) The MICs of the yeast strains for PMB, PME, and octapeptin C4 and its derivatives were determined in accordance with CLSI M27-A2 guidelines using YNB (Becton Dickinson, USA) medium supplemented with 10 mM ammonium sulfate and 2% glucose, a final inoculum concentration of 1.5 × 10^3 to 2.0 × 10^3 cells/ml, and incubation at 35°C for 72 h ([39]). […] The MICs for PMB, PME, and octapeptin C4 for A. fumigatus were determined in accordance with the CLSI M38-A2 guidelines ([40]) using synthetic RPMI 1640 medium (with glutamine, without bicarbonate and with phenol red; Life Technologies, USA). The final inoculum concentration was 0.4 × 10^4 to 5 × 10^4 cells/ml, with incubation at 35°C for 48 h. […] All assays were completed in triplicate. Fluconazole was used as a positive control where the MIC was determined at both 50% growth (in accordance with CLSI M27-A2 guidelines) and when there was a “no visible growth” reading.

[2] = tested on: C. neoformans var. neoformans; experiment: microbe, parasite or virus in culture; settings: Cryptococcus neoformans
Description: as §1

Measured: MIC

OC(Cn1cncn1)(Cn1cncn1)c1ccc(F)cc1F [Fluconazole, fluconazole]
< 25 µg/mL: [1]; Cryptococcus neoformans, strain R267 (Vancouver Island), no visible growth
1.56 µg/mL: [1]; Cryptococcus neoformans, read-out: MIC-2, strain 93/980 (CSF France), 50% fungal growth | [1]; Cryptococcus neoformans, strain R268 (Vancouver Island), no visible growth | [2]; read-out: MIC-2, strain WM 05.515 (Peru), 50% fungal growth | [2]; read-out: MIC-2, strain WM 2242 (USA), 50% fungal growth
25 µg/mL: [1]; Cryptococcus neoformans, read-out: MIC-2, strain R267 (Vancouver Island), 50% fungal growth | [1]; strain 96/1120-1 (Brain HIV2 France), no visible growth | [1]; strain 96/1120-2 (CSF HIV2 France), no visible growth | [2]; strain WM 02.37 (Canada), no visible growth | [2]; strain WM 2207 (USA, environmental), no visible growth
0.78 µg/mL: [1]; Cryptococcus neoformans, read-out: MIC-2, strain R268 (Vancouver Island), 50% fungal growth
3.13 µg/mL: [1]; Cryptococcus neoformans, read-out: MIC-2, strain B5742 (VGIV CSF India), 50% fungal growth | [1]; Cryptococcus neoformans, read-out: MIC-2, strain R269 (Vancouver Island), 50% fungal growth | [1]; Cryptococcus neoformans, read-out: MIC-2, strain R270 (Vancouver Island), 50% fungal growth | [1]; read-out: MIC-2, strain 96/1120-1 (Brain HIV2 France), 50% fungal growth | [1]; read-out: MIC-2, strain B5748 (VGIV HIV India), 50% fungal growth | [2]; read-out: MIC-2, strain WM 02.141 (Russia), 50% fungal growth | [2]; read-out: MIC-2, strain WM 02.52 (Canada), 50% fungal growth | [2]; read-out: MIC-2, strain WM 09.109 (Italy, environmental), 50% fungal growth | [2]; read-out: MIC-2, strain WM 09.112 (USA), 50% fungal growth | [2]; read-out: MIC-2, strain WM 10.119 (Australia), 50% fungal growth | [2]; read-out: MIC-2, strain WM 629 (Australia), 50% fungal growth | [2]; read-out: MIC-2, strain WM 1740 (Chile), 50% fungal growth | [2]; read-out: MIC-2, strain WM 2530 (USA), 50% fungal growth | [2]; strain WM 2242 (USA), no visible growth
12.5 µg/mL: [1]; Cryptococcus neoformans, strain R266 (Vancouver Island), no visible growth | [1]; Cryptococcus neoformans, strain R269 (Vancouver Island), no visible growth | [1]; strain B5748 (VGIV HIV India), no visible growth | [2]; read-out: MIC-2, strain WM 2207 (USA, environmental), 50% fungal growth | [2]; strain WM 01.127 (USA), no visible growth | [2]; strain WM 02.142 (Russia), no visible growth | [2]; strain WM 02.143 (Russia), no visible growth | [2]; strain WM 04.168 (Chile), no visible growth | [2]; strain WM 05.467 (Brazil, environmental), no visible growth | [2]; strain WM 09.112 (USA), no visible growth | [2]; strain WM 1706 (Argentina), no visible growth
6.25 µg/mL: [1]; Cryptococcus neoformans, ATCC34882, strain ATCC 34882, no visible growth | [1]; Cryptococcus neoformans, read-out: MIC-2, strain R266 (Vancouver Island), 50% fungal growth | [1]; Cryptococcus neoformans, strain R270 (Vancouver Island), no visible growth | [1]; read-out: MIC-2, strain 96/1120-2 (CSF HIV2 France), 50% fungal growth | [2]; read-out: MIC-2, strain WM 01.127 (USA), 50% fungal growth | [2]; read-out: MIC-2, strain WM 02.142 (Russia), 50% fungal growth | [2]; read-out: MIC-2, strain WM 02.143 (Russia), 50% fungal growth | [2]; read-out: MIC-2, strain WM 02.37 (Canada), 50% fungal growth | [2]; read-out: MIC-2, strain WM 04.168 (Chile), 50% fungal growth | [2]; read-out: MIC-2, strain WM 04.171 (Thailand, environmental), 50% fungal growth | [2]; read-out: MIC-2, strain WM 05.467 (Brazil, environmental), 50% fungal growth | [2]; read-out: MIC-2, strain WM 1706 (Argentina), 50% fungal growth | [2]; strain WM 02.141 (Russia), no visible growth | [2]; strain WM 02.52 (Canada), no visible growth | [2]; strain WM 04.171 (Thailand, environmental), no visible growth | [2]; strain WM 05.515 (Peru), no visible growth | [2]; strain WM 09.109 (Italy, environmental), no visible growth | [2]; strain WM 10.119 (Australia), no visible growth | [2]; strain WM 629 (Australia), no visible growth | [2]; strain WM 1740 (Chile), no visible growth | [2]; strain WM 2530 (USA), no visible growth
